Source: patent US20250179047A1, “5-[7-(3,4-DIHYDRO-1H-ISOQUINOLINE-2-CARBONYL)-1,2,3,4 TETRAHYDROISOQUINOLIN-6-YL]-1H-PYRROLE-3-CARBOXAMIDE DERIVATIVES, PHARMACEUTICAL COMPOSITIONS CONTAINING THEM AND THEIR USES AS PRO-APOPTOTIC AGENTS” (LES LABORATOIRES SERVIER, priority 2022, published 2025)
Like-named read-outs stand apart in the source and are kept apart here.

How the values were obtained:
BCL2 G101V [1] = assay: TR-FRET competitive binding assay, BCL2 G101V; design: species or system human; settings: for TR_FRET EKI G101V/WT selectivty ratio: ratio Ki BCL2 G101V / Ki BCL2 WT; for TR_FRET EKI G101V/WT selectivty: ratio of Ki BCL2 G101V to BCL2 WT
Method in brief: (§1)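 Competitive TR-FRET displacement of fluorescein-PUMA peptide (2 or 20 nM) from 0.5 nM terbium-labelled N-terminal Halo-fusion BCL2 (1-207, wild type or mutant) or BCLXL (2-196), expressed in E. coli. Buffer 50 mM Hepes pH 7.5, 150 mM NaCl, 5% DMSO; 2 h at 23°C. 520/495 nm ratio fitted over 11 points for IC50, converted to Ki.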

BCL2 G101V [2] = target: BCL2 G101V (Homo sapiens, UniProt P10415, G101V); assay: TR-FRET competitive binding assay, BCL2 G101V; settings: BCL2 G101V; Ki determined from IC50; read-out: TR_FRET EKI_Bcl2 G101V
Method in brief: as §1

BCL2 D103Y = BCL2 D103Y (Homo sapiens, UniProt P10415, D103Y); assay: TR-FRET competitive binding assay, BCL2 D103Y; settings: Ki determined from IC50, read-out: TR_FRET EKI_Bcl2 D103Y
Method in brief: as §1

BCL2 WT = BCL2 WT (Homo sapiens (Human), UniProt P10415); assay: TR-FRET competitive binding assay, BCL2 WT
Method in brief: as §1

BCLXL WT = BCLXL WT (Homo sapiens (Human), UniProt Q07817); assay: TR-FRET competitive binding assay, BCLXL WT; settings: for Ki: BCLXL WT, Ki determined from IC50, read-out: TR_FRET EKI BclxL; for TR_FRET EKI BCLxL/WT selectivty: ratio of Ki BCLxL to BCL2 WT
Method in brief: as §1

KMS-12-PE Bcl-2 WT = assay: In vitro cytotoxicity CellTiter-Glo 48 h, KMS-12-PE Bcl-2 WT; type: cell-based; settings: Homo sapiens, KMS-12-PE, C50 = concentration needed to reach 50% of the cellular viability
Method in brief: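 Viability measured by CellTiter-Glo luminescence after 48 h compound exposure (11-point curve, 37 °C, 5% CO2). Cells: KMS-12-PE transduced with wild-type or G101V-mutant Bcl-2, FACS-sorted for TagRFP. Reported C50 = concentration reaching 50% cellular viability.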

KMS-12-PE Bcl-2 G101V = assay: In vitro cytotoxicity CellTiter-Glo 48 h, KMS-12-PE Bcl-2 G101V; type: cell-based; settings: for Ratio (G101V/WT): C50 KMS-12-PE Bcl-2 G101V over C50 KMS-12-PE Bcl-2 WT; for IC50: Homo sapiens, KMS-12-PE, 48 h, CellTiter-Glo, C50 = concentration needed to reach 50% of the cellular viability
Procedure: KMS-12-PE (ACC 606) were purchased from the Leibniz-Institute DSMZ (Braunschweig, Germany) and were grown at 37° C. in a humidified atmosphere with […] in media recommended by the suppliers. Lentiviral particles containing Bcl-2 wild type (also named “Bcl2 WT”) and Bcl-2 mutated on G101V (also named “Bcl2 G101V”) were cloned into pcLV-CMV-DEST-IRES-TagRFP. Lentiviral particles (1×106) were mixed with Polybrene at 8 µg/ml and transduced by spinoculation for 1 h at 32° C. and incubated overnight. After 8 days, TagRFP positive-cells were sorted by FACS. BCL2 expression was monitored by immunoblotting using anti-Flag and anti-BCL2 antibodies.
Cellular viability was monitored with the cell viability assay (CellTiter-Glo®) on KMS-12-PE WT and G101V cell lines. The CellTiter-Glo® (CTG) Luminescent Cell Viability Assay (from Promega) is a homogeneous method to determine the number of viable cells in culture based on quantitation of the ATP present, which signals the presence of metabolically active cells.
Dose response of compounds are performed with 10 mM stock solutions (DMSO), 11-points curve, in a 384-well compound plate. The assay plate is prepared by stamping 40 nL from compound dilution plate of all different concentrations (e.g. 10 mM to have final […] assay test) into a cell culture microplate, using Echo acoustic liquid handling (Labcyte, Beckman). 40 μl of cell solution is added and cells are incubated with compounds for 48 h at 37° C., 5% CO2. CTG was added to the cells (according to the manufacturer instructions) and luminescence intensity was recorded using the Pherastar plate reader (BMG).
This assay provides in vitro cellular potency of the tested Bcl-2 inhibitors, measuring the C50, defined as the concentration needed to reach 50% of the cellular viability.

[3] = Ki determined from IC50, read-out: TR_FRET EKI_Bcl2 WT
[4] = Ki determined from IC50, read-out: TR_FRET EKI_Bcl2

Chain of BCLXL WT (Q07817 other isoform, or with tags, fused parts or gaps): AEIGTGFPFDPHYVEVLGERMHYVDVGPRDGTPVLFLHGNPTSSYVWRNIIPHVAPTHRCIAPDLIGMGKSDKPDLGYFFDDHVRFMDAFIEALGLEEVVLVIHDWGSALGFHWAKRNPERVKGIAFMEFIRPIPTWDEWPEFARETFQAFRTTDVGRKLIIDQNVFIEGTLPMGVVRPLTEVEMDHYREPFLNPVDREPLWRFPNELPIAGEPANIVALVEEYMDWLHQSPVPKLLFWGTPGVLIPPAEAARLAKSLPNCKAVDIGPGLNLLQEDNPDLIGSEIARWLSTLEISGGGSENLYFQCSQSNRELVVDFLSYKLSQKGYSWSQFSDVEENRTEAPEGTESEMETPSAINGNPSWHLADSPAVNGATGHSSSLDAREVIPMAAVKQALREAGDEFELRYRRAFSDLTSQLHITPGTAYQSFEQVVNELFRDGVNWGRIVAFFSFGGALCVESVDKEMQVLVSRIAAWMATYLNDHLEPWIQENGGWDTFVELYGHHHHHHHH

Row | Structure (SMILES) | TR_FRET EKI G101V/WT selectivty ratio (BCL2 G101V [1]) | Ki (BCL2 G101V [2]) | Ki (BCL2 D103Y) | Ki (BCL2 WT; [3]) | Ki (BCLXL WT) | TR_FRET EKI BCLxL/WT selectivty ratio (BCLXL WT; ratio Ki BCLxL / Ki BCL2 WT) | IC50 (KMS-12-PE Bcl-2 WT) | Ratio (G101V/WT) (KMS-12-PE Bcl-2 G101V) | IC50 (KMS-12-PE Bcl-2 G101V) | TR_FRET EKI G101V/WT selectivty (BCL2 G101V [1]) | Ki (BCL2 WT; [4]) | TR_FRET EKI BCLxL/WT selectivty (BCLXL WT)
1 | Cc1c(N(C(=O)c2cc(-c3cc4c(cc3C(=O)N3Cc5ccccc5C[C@H]3C)CN(C(=O)Cc3ccc([C@H]5C[C@@H]5N5CCOCC5)cc3F)CC4)n(C)c2C)c2ccc(O)cc2)cc(C#N)n1C (single isomer, unassigned) [Example 70, N-(5-cyano-1,2-dimethyl-pyrrol-3-yl)-5-[2-[2-[2-fluoro-4-[(1S,2R) or (1R,2S)-2-morpholinocyclopropyl]phenyl]acetyl]-7-[(3R)-3-methyl-3,4-dihydro-1H-isoquinoline-2-carbonyl]-3,4-dihydro-1H-isoquinolin-6-yl]-N-(4-hydroxyphenyl)-1,2-dimethyl-pyrrole-3-carboxamide] | 8.4 | 0.9 nM | 0.29 nM | 0.11 nM | 2.3 nM | 20.9 | 0.0076 µM | 8.32 | 0.0629 µM |  |  | 
2 | Cc1c(N(C(=O)c2cc(-c3cc4c(cc3C(=O)N3Cc5ccccc5C[C@H]3C)CN(C(=O)Cc3ccccc3C#N)CC4)n(C)c2C)c2ccc(O)cc2)cc(C#N)n1C [Example 12, N-(5-cyano-1,2-dimethyl-1H-pyrrol-3-yl)-5-{2-[2-(2-cyanophenyl)acetyl]-7-[(3R)-3-methyl-1,2,3,4-tetrahydroisoquinoline-2-carbonyl]-1,2,3,4-tetrahydroisoquinolin-6-yl}-N-(4-hydroxyphenyl)-1,2-dimethyl-1H-pyrrole-3-carboxamide] | 7.7 | 1.7 nM | 0.4 nM | 0.22 nM |  |  | 0.0074 µM | 9.14 | 0.0676 µM |  |  | 
3 | Cc1c(C(=O)N(c2ccccc2)c2cc(F)cc(C#N)c2)cc(-c2cc3c(cc2C(=O)N2Cc4ccccc4C[C@H]2C)CN(C(=O)Cc2ccc(OCCN4CCOCC4)cc2)CC3)n1C [Example 226, N-(3-cyano-5-fluoro-phenyl)-1,2-dimethyl-5-[7-[(3R)-3-methyl-3,4-dihydro-1H-isoquinoline-2-carbonyl]-2-[2-[4-(2-morpholinoethoxy)phenyl]acetyl]-3,4-dihydro-1H-isoquinolin-6-yl]-N-phenyl-pyrrole-3-carboxamide] |  | 8.4 nM | 0.76 nM |  | 41.8 nM |  | 0.0365 µM |  |  | 32.2 | 0.26 nM | 160.8
4 | Cc1c(C(=O)N(c2ccccc2)c2cc(F)cc(C#N)c2)cc(-c2cc3c(cc2C(=O)N2Cc4ccccc4C[C@H]2C)CN(C(=O)Cc2ccc(OCCN4CCOCC4)cc2F)CC3)n1C [Example 227, N-(3-cyano-5-fluoro-phenyl)-5-[2-[2-[2-fluoro-4-(2-morpholinoethoxy)phenyl]acetyl]-7-[(3R)-3-methyl-3,4-dihydro-1H-isoquinoline-2-carbonyl]-3,4-dihydro-1H-isoquinolin-6-yl]-1,2-dimethyl-N-phenyl-pyrrole-3-carboxamide] |  | 10.8 nM | 0.33 nM |  | 37.2 nM |  | 0.0254 µM |  |  | 63.7 | 0.17 nM | 219.1
5 | Cc1c(C(=O)N(c2ccc(O)cc2)c2cnn(C)c2)cc(-c2cc3c(cc2C(=O)N2Cc4ccccc4C[C@H]2C)CN(C(=O)Cc2ccc(OCCN4CCOCC4)cc2F)CC3)n1C [Example 233] |  | 0.32 nM | 0.08 nM |  | 2.74 nM |  | 0.00694 µM |  |  | 8.2 | 0.039 nM | 70.3
6 | Cc1c(N(C(=O)c2cc(-c3cc4c(cc3C(=O)N3Cc5ccccc5C[C@H]3C)CN(C(=O)Cc3ccc(OCCN5CCOCC5)cc3F)CC4)n(C)c2C)c2ccccc2)cc(C#N)n1C [Example 234] |  | 0.76 nM | 0.16 nM |  | 3.68 nM |  | 0.00221 µM |  |  | 8.9 | 0.086 nM | 42.8
7 | Cc1c(C(=O)N(c2ccccc2)c2cnn(C)c2)cc(-c2cc3c(cc2C(=O)N2Cc4ccccc4C[C@H]2C)CN(C(=O)Cc2ccc(OCCC4CCN(C)CC4)cc2)CC3)n1C [Example 237] |  | 0.52 nM | 0.057 nM |  | 1.7 nM |  | 0.007 µM |  |  | 16.3 | 0.032 nM | 53.1
8 | Cc1c(C(=O)N(c2ccccc2)c2cnn(C(F)F)c2)cc(-c2cc3c(cc2C(=O)N2Cc4ccccc4C[C@H]2C)CN(C(=O)Cc2ccc(OCCC4CCN(C)CC4)cc2)CC3)n1C [Example 238] |  | 1.07 nM | 0.13 nM |  | 2.8 nM |  | 0.00907 µM |  |  | 16.7 | 0.064 nM | 43.8
9 | Cc1c(C(=O)N(c2ccccc2)c2cnn(C)c2)cc(-c2cc3c(cc2C(=O)N2Cc4ccccc4C[C@H]2C)CN(C(=O)Cc2ccc(OCCN(C)C)cc2F)CC3)n1C [Example 239] |  | 5.25 nM | 0.132 nM |  | 4.3 nM |  | 0.0128 µM |  |  | 79.5 | 0.066 nM | 65.2
10 | Cc1c(C(=O)N(c2ccccc2)c2cnn(C)c2)cc(-c2cc3c(cc2C(=O)N2Cc4ccccc4C[C@H]2CN2CCCCC2)CN(C(=O)Cc2ccc(OCCC4CCOCC4)cc2)CC3)n1C [Example 240] |  | 6.7 nM | 0.15 nM |  | 37.5 nM |  | 0.0446 µM |  |  | 57.8 | 0.116 nM | 323
11 | Cc1c(C(=O)N(c2ccccc2)c2cnn(C(F)F)c2)cc(-c2cc3c(cc2C(=O)N2Cc4ccccc4C[C@H]2CN2CCCCC2)CN(C(=O)Cc2ccc(OCCC4CCOCC4)cc2)CC3)n1C [Example 241] |  | 39.2 nM | 0.64 nM |  | 52.7 nM |  | 0.0586 µM |  |  | 160.7 | 0.244 nM | 216
